Molecules are shown by their SMILES.

Consider one compound from publication PMC12591137, “Emodin Alleviates Sepsis‐Induced Multiorgan Damage by Inhibiting NETosis through Targeting Neutrophils BCL‐10” (Advanced Science, 2025).

Assay [1] addresses T1, rhBCL-10 (recombinant human BCL-10) (Homo sapiens, UniProt O95999).
T1 construct: gene BCL10; recombinant human protein, amine-coupled on sensor chip for SPR
T1 sequence (O95999 1-233): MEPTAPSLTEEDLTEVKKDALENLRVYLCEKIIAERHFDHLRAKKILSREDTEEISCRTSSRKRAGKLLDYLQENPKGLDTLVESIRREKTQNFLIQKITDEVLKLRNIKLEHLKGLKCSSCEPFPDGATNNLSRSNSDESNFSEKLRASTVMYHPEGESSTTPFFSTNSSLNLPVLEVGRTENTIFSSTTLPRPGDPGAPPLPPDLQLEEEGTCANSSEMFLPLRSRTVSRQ
The assay can be described thus: SPR (Biacore T200), global […] Langmuir kinetic fit. Type of assay: binding.

Assay [2] deals with T1, rhBCL-10 (recombinant human BCL-10). The assay can be described thus: thermal shift, soluble protein by western blot. In kind it is binding. Particulars: 100 µM emodin, 37-67 °C; text says recombinant BCL-10, methods describe lysate of PMA-treated HL-60 cells.
Assay [3] concerns the target T2, Flag-BCL-10 (Homo sapiens, UniProt O95999).
T2 construct: gene BCL10; Flag-tagged, overexpressed in HEK293T, cell lysate; plasmid section instead says N-terminal 'Streptococcus' tag in pCDH-EF1-MCS-T2A-Puro
T2 sequence (O95999 1-233): T1 sequence (O95999 1-233)
Nature of the assay: competition of free emodin against pull-down by emodin-Sepharose, anti-Flag western blot. In kind it is biochemical. As to conditions: 100 µM free emodin; HEK293T lysate, pH 7.4, 4 °C. A general note: In western blotting, separated proteins are transferred to a membrane and probed.

Regarding `Cc1cc(O)c2c(c1)C(=O)c1cc(O)cc(O)c1C2=O` [Emodin], the Kd in assay [1] was determined as 1940 nM. The thermal stabilisation result in assay [2] is given as “Emodin binding significantly enhances BCL-10′s thermal resistance”. Further, the “competition of free emodin against pull-down by emodin-Sepharose, anti-Flag west” value in assay [3] is listed as “free Emodin competitively inhibited the binding of Flag-BCL-10 to Emodin-Sepharose”.

What is called Kd is the equilibrium constant for the complex coming apart.
